Measurements reported in patent US12473298B2, “Amide compounds, preparation method therefor, and use thereof in the medical field” (Shanghai Synergy Pharmaceutical Sciences Co., Ltd., priority 2019, dated 2025).
Where two headings read alike, the source gives them in different places.

Key:
Mutant type EZH2(A677G) = Mutant type EZH2(A677G) (Homo sapiens (Human), UniProt Q15910, A677G); test: AlphaLISA, mutant type PRC2 complex EZH2(A677G); type: biochemical; conditions: read-out: Mutant type EZH2(A677G) IC59 Nanomoles per Liter
Chain of Mutant type EZH2(A677G) (Q15910 whole entry A677G): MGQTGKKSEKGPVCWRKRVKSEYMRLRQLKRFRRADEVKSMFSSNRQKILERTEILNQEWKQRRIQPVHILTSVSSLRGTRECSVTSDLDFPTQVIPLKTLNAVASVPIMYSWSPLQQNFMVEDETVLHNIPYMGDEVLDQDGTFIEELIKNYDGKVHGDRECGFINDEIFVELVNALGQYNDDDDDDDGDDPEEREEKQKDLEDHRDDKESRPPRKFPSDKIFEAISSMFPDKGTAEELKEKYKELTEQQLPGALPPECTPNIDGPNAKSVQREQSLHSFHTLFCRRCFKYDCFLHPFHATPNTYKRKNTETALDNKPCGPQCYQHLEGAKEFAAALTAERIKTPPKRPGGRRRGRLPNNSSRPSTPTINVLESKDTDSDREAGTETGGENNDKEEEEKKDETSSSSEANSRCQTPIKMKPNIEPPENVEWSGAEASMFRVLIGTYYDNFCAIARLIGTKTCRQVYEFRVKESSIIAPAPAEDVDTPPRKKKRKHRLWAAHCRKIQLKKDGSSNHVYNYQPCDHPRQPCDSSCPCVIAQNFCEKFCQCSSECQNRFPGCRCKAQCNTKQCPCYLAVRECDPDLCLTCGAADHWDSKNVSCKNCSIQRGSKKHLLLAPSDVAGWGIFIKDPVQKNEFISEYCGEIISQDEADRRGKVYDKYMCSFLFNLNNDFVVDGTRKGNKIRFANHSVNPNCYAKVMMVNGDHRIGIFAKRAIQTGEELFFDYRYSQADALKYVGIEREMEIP
Chain of Mutant type EZH2(A677G) (O75530 whole entry partner): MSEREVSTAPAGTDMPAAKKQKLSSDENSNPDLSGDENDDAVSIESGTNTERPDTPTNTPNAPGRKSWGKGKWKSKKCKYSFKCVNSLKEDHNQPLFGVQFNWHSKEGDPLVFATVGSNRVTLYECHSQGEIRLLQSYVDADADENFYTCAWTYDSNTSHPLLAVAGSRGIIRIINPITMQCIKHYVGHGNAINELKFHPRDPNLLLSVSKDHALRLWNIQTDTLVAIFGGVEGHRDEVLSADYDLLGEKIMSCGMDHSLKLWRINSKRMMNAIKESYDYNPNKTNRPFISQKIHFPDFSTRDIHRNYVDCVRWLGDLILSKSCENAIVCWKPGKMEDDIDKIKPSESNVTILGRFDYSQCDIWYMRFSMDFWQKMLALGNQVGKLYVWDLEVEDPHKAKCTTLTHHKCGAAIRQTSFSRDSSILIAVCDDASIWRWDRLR
Chain of Mutant type EZH2(A677G) (Q15022 whole entry partner): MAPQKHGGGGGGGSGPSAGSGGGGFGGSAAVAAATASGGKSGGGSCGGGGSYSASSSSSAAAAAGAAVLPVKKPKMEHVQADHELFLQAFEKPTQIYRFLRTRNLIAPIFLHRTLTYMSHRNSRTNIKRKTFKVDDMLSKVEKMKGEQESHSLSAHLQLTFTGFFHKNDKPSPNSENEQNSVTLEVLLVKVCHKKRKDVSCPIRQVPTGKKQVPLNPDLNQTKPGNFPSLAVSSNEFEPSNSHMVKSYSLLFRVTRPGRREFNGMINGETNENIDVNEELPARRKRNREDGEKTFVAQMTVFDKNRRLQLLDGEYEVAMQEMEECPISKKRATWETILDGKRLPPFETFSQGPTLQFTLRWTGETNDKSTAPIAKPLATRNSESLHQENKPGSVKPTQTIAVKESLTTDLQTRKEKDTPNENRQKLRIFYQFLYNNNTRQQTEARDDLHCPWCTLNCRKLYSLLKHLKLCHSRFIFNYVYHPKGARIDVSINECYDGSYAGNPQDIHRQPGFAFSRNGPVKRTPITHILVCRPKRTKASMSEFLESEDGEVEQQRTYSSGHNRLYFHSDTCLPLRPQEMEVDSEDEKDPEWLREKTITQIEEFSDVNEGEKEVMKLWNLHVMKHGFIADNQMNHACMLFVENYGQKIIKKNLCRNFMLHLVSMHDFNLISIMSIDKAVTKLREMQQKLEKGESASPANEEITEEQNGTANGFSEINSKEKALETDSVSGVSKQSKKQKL
Chain of Mutant type EZH2(A677G) (Q09028 whole entry partner): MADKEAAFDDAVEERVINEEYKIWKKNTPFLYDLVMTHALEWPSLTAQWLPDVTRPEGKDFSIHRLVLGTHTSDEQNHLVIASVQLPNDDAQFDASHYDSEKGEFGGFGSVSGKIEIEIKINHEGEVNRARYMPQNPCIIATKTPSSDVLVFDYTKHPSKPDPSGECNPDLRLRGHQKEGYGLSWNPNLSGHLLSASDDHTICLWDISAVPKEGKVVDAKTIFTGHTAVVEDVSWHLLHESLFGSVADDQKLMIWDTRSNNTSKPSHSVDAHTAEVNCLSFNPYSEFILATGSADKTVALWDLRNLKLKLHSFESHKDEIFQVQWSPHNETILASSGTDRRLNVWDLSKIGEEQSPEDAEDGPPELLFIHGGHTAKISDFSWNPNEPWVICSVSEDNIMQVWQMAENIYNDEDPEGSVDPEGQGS
Chain of Mutant type EZH2(A677G) (Q6ZN18 whole entry partner): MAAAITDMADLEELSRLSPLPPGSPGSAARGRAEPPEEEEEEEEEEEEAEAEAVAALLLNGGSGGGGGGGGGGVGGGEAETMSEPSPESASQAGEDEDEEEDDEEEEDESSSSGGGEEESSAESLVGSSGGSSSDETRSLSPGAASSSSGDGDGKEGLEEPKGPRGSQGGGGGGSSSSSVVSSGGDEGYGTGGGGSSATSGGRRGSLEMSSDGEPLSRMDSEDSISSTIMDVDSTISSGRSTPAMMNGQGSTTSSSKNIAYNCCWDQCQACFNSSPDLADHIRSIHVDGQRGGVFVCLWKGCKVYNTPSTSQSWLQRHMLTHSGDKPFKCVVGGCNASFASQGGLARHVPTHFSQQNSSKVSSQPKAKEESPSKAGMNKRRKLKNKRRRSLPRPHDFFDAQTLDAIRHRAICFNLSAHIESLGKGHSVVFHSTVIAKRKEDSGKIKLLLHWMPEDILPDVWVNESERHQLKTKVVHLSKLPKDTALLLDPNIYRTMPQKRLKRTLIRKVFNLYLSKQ

[1] = test system: human diffuse large cell lymphoma B lymphocytes (Pfeiffer cell); test: Pharmacodynamic experiment, Pfeiffer transplanted tumor model in mice; type: in vivo, mice (beige SCID); conditions: intragastrically, once a day for 21 days; for inhibited tumor growth: 100 mg/kg; for inhibition in vivo at 100 mg/kg: Mus musculus, Pfeiffer, po, 504 h, read-out: inhibited tumor growth
Source text: Under sterile conditions, human diffuse large cell lymphoma B lymphocytes (Pfeiffer cell) in logarithmic growth stage were digested and mixed with Matrigel and transplanted subcutaneously on the right back of mice (beige SCID) with severe combined immunodeficiency disease.

[2] = test system: human diffuse large B-cell lymphoma cells (Karpas 422 cell); test: Karpas 422 cell proliferation, Calcein AM staining; type: cell-based; conditions: data of 14th day, read-out: Karpas422 Proliferation IC50 Nanomoles per Liter
[3] = Pharmacokinetic experiment in rats; type: in vivo, SD rats; conditions: for Area Curve (AUC, ng/mL · h) / Half life T1/2, h) / Blood Drug level (Cmax, ng/mL) / Bioavailability (P %) / AUC / Cmax / bioavailability: rats; for Bioavailability (P %) / bioavailability: oral 20 mg/kg vs intravenous 4 mg/kg; for AUC / Cmax / bioavailability: male, SD, rat, plasma; for AUC: read-out: Area Curve (AUC, ng/mL · h); for half-life: male, SD, rat, plasma; rats, Intravenous-Dose 4 mg/kg; read-out: Half life T1/2, h) (converted); for Cmax: read-out: Blood Drug level (Cmax, ng/mL); for bioavailability: read-out: Bioavailability (P %)
Procedure: A certain amount of compound was weighted and dissolved in 0.1% Tween under vortex and ultrasound, and 0.5% carboxymethyl cellulose sodium (CMC-NA) solution was added to form a uniform solution.

wild-type EZH2 = wild-type EZH2 (Homo sapiens (Human), UniProt Q15910); test: radiometric assay, activity to wild-type EZH2 of PRC2; conditions: read-out: Wild-type EZH2 IC50 Nanomoles per Liter
Chain of wild-type EZH2 (Q15910 whole entry): as the sequence (Q15910 whole entry A677G) above, with G677A counted along it
Chain of wild-type EZH2 (O75530 whole entry partner): as the sequence (O75530 whole entry partner) above
Chain of wild-type EZH2 (Q15022 whole entry partner): as the sequence (Q15022 whole entry partner) above
Procedure: 25 μL of reaction solution was transferred to a scintillation plate, which was incubated at room temperature for 1 hour (h) and washed with deionized water and 0.1% Tween 20 for three times. A PerkinElmer liquid scintillation/luminescence counter was used to read the value, and GraphPad Prism 5 was used to calculate the median inhibitory concentration (IC50) of the compounds.

Mutant type EZH2(Y641F) = Mutant type EZH2(Y641F) (Homo sapiens (Human), UniProt Q15910, Y641F); test: AlphaLISA, mutant type PRC2 complex EZH2(Y641F); type: biochemical; conditions: read-out: Mutant type EZH2(Y641F) IC50 Nanomoles per Liter
Chain of Mutant type EZH2(Y641F) (Q15910 whole entry Y641F): as the sequence (Q15910 whole entry A677G) above, with Y641F, G677A counted along it
Chain of Mutant type EZH2(Y641F) (O75530 whole entry partner): as the sequence (O75530 whole entry partner) above
Chain of Mutant type EZH2(Y641F) (Q15022 whole entry partner): as the sequence (Q15022 whole entry partner) above
Chain of Mutant type EZH2(Y641F) (Q09028 whole entry partner): as the sequence (Q09028 whole entry partner) above
Chain of Mutant type EZH2(Y641F) (Q6ZN18 whole entry partner): as the sequence (Q6ZN18 whole entry partner) above

[4] = test system: human diffuse large cell lymphoma B lymphocytes (Pfeiffer cell); test: Pfeiffer cell proliferation, Calcein AM staining; type: cell-based; conditions: data of 14th day, read-out: Pfeiffer Proliferation IC50 Nanomoles per Liter
Source text: The diffuse large cell lymphoma B lymphocytes (Pfeiffer cells) were collected and counted when growing well.

Mutant type EZH2(Y641N) = Mutant type EZH2(Y641N) (Homo sapiens (Human), UniProt Q15910, Y641N); test: AlphaLISA, mutant type PRC2 complex EZH2(Y641N); type: biochemical; conditions: read-out: Mutant type EZH2(Y641N) IC50 Nanomoles per Liter
Chain of Mutant type EZH2(Y641N) (Q15910 whole entry Y641N): as the sequence (Q15910 whole entry A677G) above, with Y641N, G677A counted along it
Chain of Mutant type EZH2(Y641N) (O75530 whole entry partner): as the sequence (O75530 whole entry partner) above
Chain of Mutant type EZH2(Y641N) (Q15022 whole entry partner): as the sequence (Q15022 whole entry partner) above
Chain of Mutant type EZH2(Y641N) (Q09028 whole entry partner): as the sequence (Q09028 whole entry partner) above
Chain of Mutant type EZH2(Y641N) (Q6ZN18 whole entry partner): as the sequence (Q6ZN18 whole entry partner) above

Molecule	IC50 (Mutant type EZH2(A677G))	inhibited tumor growth [1]	IC50 [2]	Area Curve (AUC, ng/mL · h) ([3]; Intravenous-Dose 4 mg/kg)	Half life T1/2, h) ([3]; Intravenous-Dose 4 mg/kg)	Area Curve (AUC, ng/mL · h) ([3]; Oral-Dose 20 mg/kg)	Blood Drug level (Cmax, ng/mL) ([3]; Oral-Dose 20 mg/kg)	Bioavailability (P %) [3]	IC50 (wild-type EZH2)	IC50 (Mutant type EZH2(Y641F))	IC50 [4]	inhibition in vivo at 100 mg/kg [1]	AUC ([3]; Intravenous-Dose 4 mg/kg)	half-life [3]	AUC ([3]; Oral-Dose 20 mg/kg)	Cmax ([3]; Oral-Dose 20 mg/kg)	bioavailability [3]	IC50 ([2]; Homo sapiens, KARPAS-422)	IC50 ([4]; Homo sapiens, Pfeiffer)	IC50 (Mutant type EZH2(Y641N))
3-(ethyl(tetrahydro-2H-pyran-4-yl)amino)-5-(6-fluoro-2,2′,3,3′,5′,6′-hexahydrospiro[indene-1,4′-pyran]-5-yl)-N-((4-methoxy-6-methyl-2-oxo-1,2-dihydropyridin-3-yl)methyl)-2-methylbenzamide 9-1 and 3-(ethyl(tetrahydro-2H-pyran-4-yl)amino)-5-(5-fluoro-2,2′,3,3′,5′,6′-hexahydrospiro[indene-1,4′-pyran]-6-yl)-N-((4-methoxy-6-methyl-2-oxo-1,2-dihydropyridin-3-yl)methyl)-2-methylbenzamide 9-2 [Example 9]	0.37 nM	97%	1.8 nM	926.01 ng·h/mL	1.54 h	1522.36 ng·h/mL	437.25 ng/mL	32.88%	0.7 nM	0.52 nM	0.42 nM									
CCN(c1cc(-c2ccc3c(c2)NCC32CCOCC2)cc(C(=O)NCc2c(OC)cc(C)[nH]c2=O)c1C)C1CCNCC1 [Example 5, 3-(ethyl(piperidin-4-yl)amino)-N-((4-methoxy-6-methyl-2-oxo-1,2-dihydropyridin-3-yl)methyl)-2-methyl-5-(2′,3′,5′,6′-tetrahydrospiro[indoline-3,4′-pyran]-6-yl)benzamide]												98%	912 ng·h/mL	1.05 h	1570 ng·h/mL	453 ng/mL	34.3%			
CCN(c1cc(-c2ccc3c(c2)NCC32CCN(C)CC2)cc(C(=O)NCc2c(C)cc(C)[nH]c2=O)c1C)C1CCOCC1 [Example 7, N-((4,6-dimethyl-2-oxo-1,2-dihydropyridin-3-yl)methyl)-3-(ethyl(tetrahydro-2H-pyran-4-yl)amino)-2-methyl-5-(1′-methylspiro[dihydroindole-3,4′-piperidine]-6-yl)benzamide]		95%		937.25 ng·h/mL	1.64 h	1435.87 ng·h/mL	405.10 ng/mL	30.64%												
CCN(c1cc(-c2cc3c(cc2F)C2(CCOCC2)C(=O)N3C)cc(C(=O)NCc2c(C)cc(C)[nH]c2=O)c1C)C1CCOCC1 [Example 12, N-((4,6-dimethyl-2-carbonyl-1,2-dihydropyridin-3-yl)methyl)-3-(ethyl(tetrahydro-2H-pyran-4-yl)amino)-5-(5-fluoro-1-methyl-2-carbonyl-2′,3′,5′,6′-tetrahydrospiro[dihydroindole-3,4′-pyran]-6-yl)-2-methylbenzamide]												99%	896 ng·h/mL	1.37 h	1510 ng·h/mL	412 ng/mL	33.7%	0.96 nM	0.19 nM	
CCN(c1cc(-c2ccc3c(c2)N(C)C(=O)C32CCNCC2)cc(C(=O)NCc2c(OC)cc(C)[nH]c2=O)c1C)C1CCOCC1 [Example 34, 3-(ethyl(tetrahydro-2H-pyran-4-yl)amino)-N-((4-methoxy-6-methyl-2-carbonyl-1,2-dihydropyridin-3-yl)methyl)-2-methyl-5-(1-methyl-2-carbonylspiro[dihydroindole-3,4′-piperidine]-6-yl)benzamide]												96%	966 ng·h/mL	1.32 h	1750 ng·h/mL	594 ng/mL	36.3%			
CCN(c1cc(-c2ccc3c(c2)C2(CCOCC2)C(=O)N3)cc(C(=O)NCc2c(C)cc(C)[nH]c2=O)c1C)C1CCOCC1 [Example 77, N-((4,6-dimethyl-2-oxo-1,2-dihydropyridin-3-yl)methyl)-3-(ethyl(tetrahydro-2H-pyran-4-yl)amino)-2-methyl-5-(2-oxo-2′,3′,5′,6′-tetrahydrospiro[dihydroindole-3,4′-pyran]-5-yl)benzamide]	0.67 nM								0.91 nM			100%						8.15 nM	7.16 nM	
CCN(c1cc(-c2ccc3c(c2)C2(CCOCC2)C(=O)N3C)cc(C(=O)NCc2c(C)cc(C)[nH]c2=O)c1C)C1CCOCC1 [Example 83, N-((4,6-dimethyl-2-oxo-1,2-dihydropyridin-3-yl)methyl)-3-(ethyl(tetrahydro-2H-pyran-4-yl)amino)-2-methyl-5-(1-methyl-2-oxo-2′,3′,5′,6′-tetrahydrospiro[dihydroindole-3,4′-pyran]-5-yl)benzamide]	0.91 nM								1.83 nM	1.48 nM		98%						4.76 nM	4.24 nM	0.38 nM
CCN(c1cc(-c2ccc3c(c2)NC(=O)C32CCC(C)(O)CC2)cc(C(=O)NCc2c(C)cc(C)[nH]c2=O)c1C)C1CCOCC1 (centres unmarked) [Example 93, N-((4,6-dimethyl-2-oxo-1,2-dihydropyridin-3-yl)methyl)-3-(ethyl(tetrahydro-2H-pyran-4-yl)amino)-5-(4-hydroxy-4-methyl-2′-oxospiro[cyclohexane-1,3′-dihydroindole]-6′-yl)-2-methylbenzamide]									1.12 nM	0.57 nM		94%						2.64 nM	1.39 nM	0.4 nM
CCN(c1cc(-c2ccc3c(c2)C2(CCOCC2)C(=O)N3C)cc(C(=O)NCc2c(OC)cc(C)[nH]c2=O)c1C)C1CCN(CC(F)(F)F)CC1 [Example 109, 3-(Ethyl(1-(2,2,2-trifluoroethyl)piperidin-4-yl)amino)-N-((4-methoxy-6-methyl-2-oxo-1,2-dihydropyridin-3-yl)methyl)-2-methyl-5-(1-methyl-2-oxo-2′,3′,5′,6′-tetrahydrospiro[dihydroindole-3,4′-pyran]-5-yl)benzamide]	0.63 nM								0.81 nM	0.72 nM		101%	966 ng·h/mL	1.12 h	1610 ng·h/mL	456 ng/mL	53.3%	2.15 nM	1.34 nM	
CCN(c1cc(-c2ccc3c(c2)NC(=O)C32CCOCC2)cc(C(=O)NCc2c(OC)cc(C)[nH]c2=O)c1C)C1CCOCC1OC (centres unmarked) [Example 112, 3-(Ethyl(3-methoxytetrahydro-2H-pyran-4-yl)amino)-N-((4-methoxy-6-methyl-2-oxo-1,2-dihydropyridin-3-yl)methyl)-2-methyl-5-(2-oxo-2′,3′,5′,6′-tetrahydrospiro[dihydroindole-3,4′-pyran]-6-yl)benzamide]	0.51 nM								1.02 nM	0.82 nM			936 ng·h/mL	1.26 h	1190 ng·h/mL	494 ng/mL	25.5%	5.78 nM	4.17 nM	0.48 nM
